{"source": "the supplement of paper PMC10307832", "experiment_in_all_cases": "relative viability (nuclei count vs DMSO), 5 days (fraction); higher = more cells survive", "key": {"NCI-H2087": {"tested_on": "NCI-H2087", "outline": "(§1)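 Cells from lung cancer lines were seeded into 1536-well plates and, one day later, dosed by pin tool. Treatments were either a single drug or a fixed dose of an anchor drug with five library-drug doses (not always all listed) in √10 steps. After 5 days, nuclei were stained in a one-step fixation (final 0.05% Triton X-100, 1% formaldehyde, 1 ug/ml Hoechst) and counted on 4× images, and relative viability is the treated-to-vehicle nuclei ratio, as the median of duplicate plates.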"}, "HOP-62": {"tested_on": "HOP-62", "outline": "as §1"}, "NCI-H647": {"tested_on": "NCI-H647", "outline": "as §1"}, "SW 1573": {"tested_on": "SW 1573", "outline": "as §1"}, "PC-3 [JPC-3]": {"tested_on": "PC-3 [JPC-3]", "outline": "as §1"}, "LOU-NH91": {"tested_on": "LOU-NH91", "outline": "as §1"}, "H3255": {"tested_on": "H3255", "outline": "as §1"}, "NCI-H1395": {"tested_on": "NCI-H1395", "outline": "as §1"}, "NCI-H1975": {"tested_on": "NCI-H1975", "outline": "as §1"}, "EKVX": {"tested_on": "EKVX", "outline": "as §1"}, "EPLC-272H": {"tested_on": "EPLC-272H", "outline": "as §1"}, "BEN": {"tested_on": "BEN", "outline": "as §1"}, "HCC-827": {"tested_on": "HCC-827", "outline": "as §1"}, "NCI-H1437": {"tested_on": "NCI-H1437", "outline": "as §1"}, "NCI-H2126": {"tested_on": "NCI-H2126", "outline": "as §1"}, "COR-L 105": {"tested_on": "COR-L 105", "outline": "as §1"}, "LCLC-97TM1": {"tested_on": "LCLC-97TM1", "outline": "as §1"}, "NCI-H1666": {"tested_on": "NCI-H1666", "outline": "as §1"}, "NCI-H2085": {"tested_on": "NCI-H2085", "outline": "as §1"}, "201T": {"tested_on": "201T", "outline": "as §1"}, "LU99A": {"tested_on": "LU99A", "outline": "as §1"}, "HCC-44": {"tested_on": "HCC-44", "outline": "as §1"}}}
{"smiles": "C[C@@H]1CN(CC(=O)Nc2ccc3c(c2)Cc2cccc(-c4cc(=O)cc(N5CCOCC5)o4)c2S3)C[C@H](C)O1", "note": "+ CC1(C)CCC(c2ccc(Cl)cc2)=C(CN2CCN(c3ccc(C(=O)NS(=O)(=O)c4ccc(N[C@H](CCN5CCOCC5)CSc5ccccc5)c(S(=O)(=O)C(F)(F)F)c4)cc3)CC2)C1 [Navitoclax] (partner 0.5 µM)", "values": [{"measurement": "relative viability", "setting": "NCI-H2087; first compound 0.04 µM", "value": 0.971}, {"measurement": "relative viability", "setting": "NCI-H2087; first compound 0.1265 µM", "value": 1.1}, {"measurement": "relative viability", "setting": "NCI-H2087; first compound 0.4 µM", "value": 0.909}, {"measurement": "relative viability", "setting": "NCI-H2087; first compound 4 µM", "value": 0.923}, {"measurement": "relative viability", "setting": "HOP-62; first compound 0.04 µM", "value": 0.879}, {"measurement": "relative viability", "setting": "HOP-62; first compound 0.1265 µM", "value": 0.979}, {"measurement": "relative viability", "setting": "HOP-62; first compound 0.4 µM", "value": 1.14}, {"measurement": "relative viability", "setting": "HOP-62; first compound 4 µM", "value": 1.01}, {"measurement": "relative viability", "setting": "NCI-H647; first compound 0.04 µM", "value": 0.989}, {"measurement": "relative viability", "setting": "NCI-H647; first compound 0.1265 µM", "value": 1.09}, {"measurement": "relative viability", "setting": "NCI-H647; first compound 0.4 µM", "value": 1.09}, {"measurement": "relative viability", "setting": "NCI-H647; first compound 4 µM", "value": 0.591}, {"measurement": "relative viability", "setting": "SW 1573; first compound 0.04 µM", "value": 0.979}, {"measurement": "relative viability", "setting": "SW 1573; first compound 0.1265 µM", "value": 1.05}, {"measurement": "relative viability", "setting": "SW 1573; first compound 0.4 µM", "value": 0.846}, {"measurement": "relative viability", "setting": "SW 1573; first compound 4 µM", "value": 0.842}, {"measurement": "relative viability", "setting": "PC-3 [JPC-3]; first compound 0.04 µM", "value": 0.875}, {"measurement": "relative viability", "setting": "PC-3 [JPC-3]; first compound 0.1265 µM", "value": 0.795}, {"measurement": "relative viability", "setting": "PC-3 [JPC-3]; first compound 0.4 µM", "value": 0.836}, {"measurement": "relative viability", "setting": "PC-3 [JPC-3]; first compound 4 µM", "value": 0.835}, {"measurement": "relative viability", "setting": "LOU-NH91; first compound 0.04 µM", "value": 0.701}, {"measurement": "relative viability", "setting": "LOU-NH91; first compound 0.1265 µM", "value": 0.617}, {"measurement": "relative viability", "setting": "LOU-NH91; first compound 0.4 µM", "value": 0.702}, {"measurement": "relative viability", "setting": "LOU-NH91; first compound 4 µM", "value": 0.66}, {"measurement": "relative viability", "setting": "H3255; first compound 0.04 µM", "value": 0.475}, {"measurement": "relative viability", "setting": "H3255; first compound 0.1265 µM", "value": 0.411}, {"measurement": "relative viability", "setting": "H3255; first compound 0.4 µM", "value": 0.463}, {"measurement": "relative viability", "setting": "H3255; first compound 4 µM", "value": 0.518}, {"measurement": "relative viability", "setting": "NCI-H1395; first compound 0.04 µM", "value": 1.16}, {"measurement": "relative viability", "setting": "NCI-H1395; first compound 0.1265 µM", "value": 1.26}, {"measurement": "relative viability", "setting": "NCI-H1395; first compound 0.4 µM", "value": 1.35}, {"measurement": "relative viability", "setting": "NCI-H1395; first compound 4 µM", "value": 1.16}, {"measurement": "relative viability", "setting": "NCI-H1975; first compound 0.04 µM", "value": 1.33}, {"measurement": "relative viability", "setting": "NCI-H1975; first compound 0.1265 µM", "value": 1.06}, {"measurement": "relative viability", "setting": "NCI-H1975; first compound 0.4 µM", "value": 1.02}, {"measurement": "relative viability", "setting": "NCI-H1975; first compound 4 µM", "value": 0.846}, {"measurement": "relative viability", "setting": "EKVX; first compound 0.04 µM", "value": 0.899}, {"measurement": "relative viability", "setting": "EKVX; first compound 0.1265 µM", "value": 0.894}, {"measurement": "relative viability", "setting": "EKVX; first compound 0.4 µM", "value": 0.862}, {"measurement": "relative viability", "setting": "EKVX; first compound 4 µM", "value": 0.812}, {"measurement": "relative viability", "setting": "EPLC-272H; first compound 0.04 µM", "value": 1.09}, {"measurement": "relative viability", "setting": "EPLC-272H; first compound 0.1265 µM", "value": 0.935}, {"measurement": "relative viability", "setting": "EPLC-272H; first compound 0.4 µM", "value": 1.11}, {"measurement": "relative viability", "setting": "EPLC-272H; first compound 4 µM", "value": 0.911}, {"measurement": "relative viability", "setting": "BEN; first compound 0.04 µM", "value": 0.0641}, {"measurement": "relative viability", "setting": "BEN; first compound 0.1265 µM", "value": 0.0514}, {"measurement": "relative viability", "setting": "BEN; first compound 0.4 µM", "value": 0.0961}, {"measurement": "relative viability", "setting": "BEN; first compound 4 µM", "value": 0.0488}, {"measurement": "relative viability", "setting": "HCC-827; first compound 0.04 µM", "value": 0.931}, {"measurement": "relative viability", "setting": "HCC-827; first compound 0.1265 µM", "value": 0.944}, {"measurement": "relative viability", "setting": "HCC-827; first compound 0.4 µM", "value": 1.04}, {"measurement": "relative viability", "setting": "HCC-827; first compound 4 µM", "value": 1.03}, {"measurement": "relative viability", "setting": "NCI-H1437; first compound 0.04 µM", "value": 1.14}, {"measurement": "relative viability", "setting": "NCI-H1437; first compound 0.1265 µM", "value": 1.1}, {"measurement": "relative viability", "setting": "NCI-H1437; first compound 0.4 µM", "value": 1.13}, {"measurement": "relative viability", "setting": "NCI-H1437; first compound 4 µM", "value": 0.882}, {"measurement": "relative viability", "setting": "NCI-H2126; first compound 0.04 µM", "value": 0.879}, {"measurement": "relative viability", "setting": "NCI-H2126; first compound 0.1265 µM", "value": 0.868}, {"measurement": "relative viability", "setting": "NCI-H2126; first compound 0.4 µM", "value": 0.808}, {"measurement": "relative viability", "setting": "NCI-H2126; first compound 4 µM", "value": 0.851}, {"measurement": "relative viability", "setting": "COR-L 105; first compound 0.04 µM", "value": 1.01}, {"measurement": "relative viability", "setting": "COR-L 105; first compound 0.1265 µM", "value": 0.801}, {"measurement": "relative viability", "setting": "COR-L 105; first compound 0.4 µM", "value": 0.728}, {"measurement": "relative viability", "setting": "COR-L 105; first compound 4 µM", "value": 0.686}, {"measurement": "relative viability", "setting": "LCLC-97TM1; first compound 0.1265 µM", "value": 0.645}, {"measurement": "relative viability", "setting": "LCLC-97TM1; first compound 0.4 µM", "value": 0.279}, {"measurement": "relative viability", "setting": "LCLC-97TM1; first compound 4 µM", "value": 0.318}, {"measurement": "relative viability", "setting": "NCI-H1666; first compound 0.04 µM", "value": 1.14}, {"measurement": "relative viability", "setting": "NCI-H1666; first compound 0.1265 µM", "value": 1.12}, {"measurement": "relative viability", "setting": "NCI-H1666; first compound 0.4 µM", "value": 0.862}, {"measurement": "relative viability", "setting": "NCI-H1666; first compound 4 µM", "value": 0.781}, {"measurement": "relative viability", "setting": "NCI-H2085; first compound 0.04 µM", "value": 1.23}, {"measurement": "relative viability", "setting": "NCI-H2085; first compound 0.1265 µM", "value": 1.18}, {"measurement": "relative viability", "setting": "NCI-H2085; first compound 0.4 µM", "value": 1.02}, {"measurement": "relative viability", "setting": "NCI-H2085; first compound 4 µM", "value": 0.827}, {"measurement": "relative viability", "setting": "201T; first compound 0.04 µM", "value": 1.21}, {"measurement": "relative viability", "setting": "201T; first compound 0.1265 µM", "value": 1.2}, {"measurement": "relative viability", "setting": "201T; first compound 0.4 µM", "value": 1.19}, {"measurement": "relative viability", "setting": "201T; first compound 4 µM", "value": 1.14}, {"measurement": "relative viability", "setting": "LU99A; first compound 0.04 µM", "value": 0.856}, {"measurement": "relative viability", "setting": "LU99A; first compound 0.1265 µM", "value": 0.758}, {"measurement": "relative viability", "setting": "LU99A; first compound 0.4 µM", "value": 0.926}, {"measurement": "relative viability", "setting": "LU99A; first compound 4 µM", "value": 0.821}, {"measurement": "relative viability", "setting": "HCC-44; first compound 0.04 µM", "value": 0.987}, {"measurement": "relative viability", "setting": "HCC-44; first compound 0.1265 µM", "value": 0.894}, {"measurement": "relative viability", "setting": "HCC-44; first compound 0.4 µM", "value": 0.835}, {"measurement": "relative viability", "setting": "HCC-44; first compound 4 µM", "value": 0.943}]}
